The values that follow come from patent publication US20250059172A1, “INDAZOLE COMPOUND AND PHARMACEUTICAL” (NIPPON SHINYAKU CO., LTD., priority 2021, published 2025).

The target in one experiment is human mPGES-1 (Homo sapiens (Human), UniProt O14684). The experiment in a line: mPGES-1 inhibitory activity test. The class given is biochemical. The settings on record: microsomes of CHO-K1 cells expressing human mPGES-1, PGH2 1 μM, PGE2 by HTRF; read-out: mPGES-1 inhibition (IC50 nM). The procedure: mPGES-1 microsomal specimens were prepared by transiently transfecting CHO-K1 cells (DS Pharma Biomedical Co. Ltd) with a plasmid encoding human mPGES-1 cDNA using FuGENE 6 Transfection Reagent (Promega). The prepared mPGES-1 microsome specimens were diluted in potassium phosphate buffer of pH 7.4 comprising 2.5 mM reduced glutathione (Sigma-Aldrich), DMSO solution of a test compound or DMSO was added to a final concentration of 1% of DMSO, and then incubated at 4° C. for 20 minutes. The enzymatic reaction was then initiated by adding a solution of PGH2 (Cayman chemical) substrate of a final concentration 1 μM and incubated at 4° C. for 60 seconds. The reaction was terminated by adding a solution of ferric chloride (STREM CHEMICALS) and citric acid (Wako Pure Chemical Industries) salt to a final concentration of 5 mg/mL and 250 mM, respectively. The formed PGE2 was quantified using the HTRF kit (Cisbio International). Solutions without the test compound were used as positive controls, and solutions without the test compound and microsomal specimens were used as negative controls. 100% activity was defined as production of PGE2 in the positive control minus that in the negative control. The percentage inhibition of production of PGE2 at final concentrations of 10 nM and 100 nM of the test compound was then calculated, or IC50 values were determined using standard methods.
For orientation: Time-resolved FRET reads energy transfer from a long-lived donor to a nearby acceptor.

The subject of a further experiment is human A549 cells. Put plainly: Inhibition test of PGE2 production using human A549 cells. The class given is cell-based. The following applies: IL-1β stimulated A549 cells, 24 h, PGE2 by HTRF, read-out: A549 cell inhibition of PGE2 production IC50. The protocol: 100 μL of RPMI medium (Sigma) comprising 10% FBS and human A549 cells was seeded in a 96-well plate to […] cells per well, and incubated overnight. The medium was then removed and washed with phosphate-buffered saline, and added to a DMSO solution of the test compound or RPMI medium comprising 3% FBS with DMSO to a final concentration of 0.1% DMSO. After incubation for 60 minutes, IL-1P (5 ng/well, BioLegend) was added to the solution. After incubation at 37° C. for 24 h, PGE2 in the medium was quantified using the HTRF kit (Cisbio International) and PGF2a was also quantified using the EIA kit (Cayman chemical). Solutions without the test compound were used as positive controls, and solutions without the test compound and IL-1β were used as negative controls. 100% activity was defined as production of PGE2 and PGF2a in the positive control minus those in the negative control. IC50 values were then determined using standard methods.

The structures appear in SMILES notation. pIC50: −log10 of the molar value. Structures can show the parent of a compound that is named as a salt.

Sequence of human mPGES-1 (O14684 whole entry): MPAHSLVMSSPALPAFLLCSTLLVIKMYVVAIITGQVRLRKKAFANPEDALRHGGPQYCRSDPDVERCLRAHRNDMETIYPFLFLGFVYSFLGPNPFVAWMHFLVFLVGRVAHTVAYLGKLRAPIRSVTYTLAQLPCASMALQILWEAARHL

With `N#CC1(C(=O)NCc2ccc(Cl)c(C(=O)Nc3cccc4c3cnn4-c3ccc(C(F)(F)F)cc3)c2)CC1` [Example 25, 2-Chloro-5-({[(1-cyanocyclopropyl)carbonyl]amino}methyl)-N-{1-[4-(trifluoromethyl)phenyl]-1H-indazol-4-yl}benzamide], the IC50 on human mPGES-1 worked out at 3.9 nM. In addition, the pIC50 with human A549 cells was 8.07.

Take `O=C(Nc1cccc2c1cnn2-c1ccc(C(F)(F)F)cc1)c1cc(CNC(=O)C2(C(F)(F)F)CC2)ccc1Cl` [Example 26, 2-Chloro-5-[({[1-(trifluoromethyl)cyclopropyl]carbonyl}amino)methyl]-N-{1-[4-(trifluoromethyl)phenyl]-1H-indazol-4-yl}benzamide]: the half-maximal inhibitory concentration (IC50) on human mPGES-1 was found to be 1.6 nM. For the same molecule, the negative-log IC50 (pIC50) in the experiment with human A549 cells was 8.64.

Consider `O=C(Nc1cccc2c1cnn2-c1ccc(C(F)(F)F)cc1)c1cc(CNC(=O)C2(O)CC2)ccc1Cl` [Example 27], for which the IC50 on human mPGES-1 was 10 nM. In addition, the negative-log IC50 (pIC50) with human A549 cells was 8.36.

Regarding `CC(C)(CO)C(=O)NCc1ccc(Cl)c(C(=O)Nc2cccc3c2cnn3-c2ccc(C(F)(F)F)cc2)c1` [Example 28, 2-Chloro-5-{[(3-hydroxy-2,2-dimethylpropanoyl)amino]methyl}-N-{1-[4-(trifluoromethyl)phenyl]-1H-indazol-4-yl}benzamide], on human mPGES-1, the 50% inhibitory concentration (IC50) worked out at 1.9 nM. Moreover, the pIC50 in the experiment on human A549 cells is 8.24.

With `O=C(Nc1cccc2c1cnn2-c1ccc(C(F)(F)F)cc1)c1cc(CNC(=O)C2CCC2)ccc1Cl` [Example 29, 2-Chloro-5-{[(cyclobutylcarbonyl)amino]methyl}-N-{1-[4-(trifluoromethyl)phenyl]-1H-indazol-4-yl}benzamide], the IC50 at human mPGES-1 came to 4.5 nM. Besides, the negative logarithm of the IC50 (pIC50) with human A549 cells was 8.17.

Turning to `O=C(Nc1cccc2c1cnn2-c1ccc(C(F)(F)F)cc1)c1cc(CNC(=O)C2CCCC2)ccc1Cl` [Example 30, 2-Chloro-5-{[(cyclopentylcarbonyl)amino]methyl}-N-{1-[4-(trifluoromethyl)phenyl]-1H-indazol-4-yl}benzamide], the IC50 at human mPGES-1 came out at 5.5 nM. Further, the pIC50 in the experiment with human A549 cells is 8.59.

As for `O=C(Nc1cccc2c1cnn2-c1ccc(C(F)(F)F)cc1)c1cc(CNC(=O)C2CCCCC2)ccc1Cl` [Example 31, 2-Chloro-5-{[(cyclohexylcarbonyl)amino]methyl}-N-{1-[4-(trifluoromethyl)phenyl]-1H-indazol-4-yl}benzamide], the IC50 on human mPGES-1 turned out to be 1.6 nM. In addition, the negative-log IC50 (pIC50) in the experiment with human A549 cells is 8.26.

For the molecule `O=C(Nc1cccc2c1cnn2-c1ccc(C(F)(F)F)cc1)c1cc(CNC(=O)C23CC4CC(CC(C4)C2)C3)ccc1Cl` [Example 32, N-[4-chloro-3-({1-[4-(trifluoromethyl)phenyl]-1H-indazol-4-yl}carbamoyl)benzyl]tricyclo[3.3.1.1^3,]decane-1-carboxamide], the 50% inhibitory concentration (IC50) on human mPGES-1 was 23 nM. Further, the pIC50 in the experiment on human A549 cells was 7.92.

For the molecule `O=C(Nc1cccc2c1cnn2-c1ccc(C(F)(F)F)cc1)c1cc(CNC(=O)C2CCCO2)ccc1Cl` (stereo not shown) [Example 33, N-[4-chloro-3-({1-[4-(trifluoromethyl)phenyl]-1H-indazol-4-yl}carbamoyl)benzyl]-tetrahydrofuran-2-carboxamide], the 50% inhibitory concentration (IC50) on human mPGES-1 was found to be 18 nM. Further, the pIC50 in the experiment on human A549 cells was 7.38.

For the molecule `O=C(Nc1cccc2c1cnn2-c1ccc(C(F)(F)F)cc1)c1cc(CNC(=O)C2CCOC2)ccc1Cl` (stereo not shown) [Example 34, N-[4-chloro-3-({1-[4-(trifluoromethyl)phenyl]-1H-indazol-4-yl}carbamoyl)benzyl]-tetrahydrofuran-3-carboxamide], on human mPGES-1, the 50% inhibitory concentration (IC50) was found to be 31 nM. Moreover, the pIC50 in the experiment on human A549 cells is 7.68.

Consider `CN(C)CCC(=O)NCc1ccc(Cl)c(C(=O)Nc2cccc3c2cnn3-c2ccc(C(F)(F)F)cc2)c1` [Example 35, 2-Chloro-5-{[(N,N-dimethyl-p-alanyl)amino]methyl}-N-{1-[4-(trifluoromethyl)phenyl]-1H-indazol-4-yl}benzamide hydrochloride], for which, at human mPGES-1, the IC50 was determined as 116 nM. Further, in the experiment with human A549 cells, the negative-log IC50 (pIC50) was 6.03.

`CC(C)(C)OC(=O)N1CCC(C(=O)NCc2ccc(Cl)c(C(=O)Nc3cccc4c3cnn4-c3ccc(C(F)(F)F)cc3)c2)CC1` [Example 36, tert-Butyl 4-{[4-chloro-3-({1-[4-(trifluoromethyl)phenyl]-1H-indazol-4-yl}carbamoyl)benzyl]carbamoyl}piperidine-1-carboxylate]: the IC50 at human mPGES-1 amounted to 1.4 nM. Besides, the negative logarithm of the IC50 (pIC50) with human A549 cells was 8.77.

Turning to `O=C(CC(F)(F)F)NCc1ccc(Cl)c(C(=O)Nc2cccc3c2cnn3-c2ccc(C(F)(F)F)cc2)c1` [Example 37, 2-Chloro-N-{1-[4-(trifluoromethyl)phenyl]-1H-indazol-4-yl}-5-{[(3,3,3-trifluoropropanoyl)amino]methyl}benzamide], on human mPGES-1, the half-maximal inhibitory concentration (IC50) stood at 8.9 nM. Also, the pIC50 in the experiment with human A549 cells was 8.60.

`O=C(CC1CC1)NCc1ccc(Cl)c(C(=O)Nc2cccc3c2cnn3-c2ccc(C(F)(F)F)cc2)c1` [Example 38, 2-Chloro-5-{[(cyclopropylacetyl)amino]methyl}-N-{1-[4-(trifluoromethyl)phenyl]-1H-indazol-4-yl}benzamide]: on human mPGES-1, the IC50 stood at 5.7 nM. In addition, the pIC50 in the experiment with human A549 cells was 8.12.

As to `O=C(Nc1cccc2c1cnn2-c1ccc(C(F)(F)F)cc1)c1cc(CNC(=O)[C@H]2CC[C@H](O)CC2)ccc1Cl` [Example 39, 2-Chloro-5-({[trans-(4-hydroxycyclohexyl)carbonyl]amino}methyl)-N-{1-[4-(trifluoromethyl)phenyl]-1H-indazol-4-yl}benzamide], the IC50 at human mPGES-1 came out at 7.5 nM. Also, in the experiment with human A549 cells, the negative-log IC50 (pIC50) was 8.29.

For `O=C(Nc1cccc2c1cnn2-c1ccc(C(F)(F)F)cc1)c1cc(CNC(=O)[C@H]2CC[C@@H](O)CC2)ccc1Cl` [Example 40, 2-Chloro-5-({[cis-(4-hydroxycyclohexyl)carbonyl]amino}methyl)-N-{1-[4-(trifluoromethyl)phenyl]-1H-indazol-4-yl}benzamide], the concentration for half-maximal inhibition (IC50) on human mPGES-1 was found to be 19.1 nM. For the same molecule, in the experiment on human A549 cells, the pIC50 was 7.22.

On to `CCC(O)(CC)C(=O)NCc1ccc(Cl)c(C(=O)Nc2cccc3c2cnn3-c2ccc(C(F)(F)F)cc2)c1` [Example 41, 2-Chloro-5-{[(2-ethyl-2-hydroxybutanoyl)amino]methyl}-N-{1-[4-(trifluoromethyl)phenyl]-1H-indazol-4-yl}benzamide], for which the half-maximal inhibitory concentration (IC50) on human mPGES-1 came out at 1 nM. Besides, the pIC50 in the experiment on human A549 cells was 7.86.

Take `CCCC(=O)NCc1ccc(Cl)c(C(=O)Nc2cccc3c2cnn3-c2ccc(C(F)(F)F)cc2)c1` [Example 43, 5-[(Butanoylamino)methyl]-2-chloro-N-{1-[4-(trifluoromethyl)phenyl]-1H-indazol-4-yl}benzamide]: the concentration for half-maximal inhibition (IC50) at human mPGES-1 was determined as 2.3 nM. The pIC50 in the experiment on human A549 cells was 7.87.

For the molecule `O=C(Cc1ccccc1)NCc1ccc(Cl)c(C(=O)Nc2cccc3c2cnn3-c2ccc(C(F)(F)F)cc2)c1` [Example 44, 2-Chloro-5-{[(phenylacetyl)amino]methyl}-N-{1-[4-(trifluoromethyl)phenyl]-1H-indazol-4-yl}benzamide], the IC50 at human mPGES-1 was 7.2 nM. Moreover, the pIC50 with human A549 cells is 6.82.

As to `O=C(NCc1ccc(Cl)c(C(=O)Nc2cccc3c2cnn3-c2ccc(C(F)(F)F)cc2)c1)c1ccco1` [Example 45, N-[4-chloro-3-({1-[4-(trifluoromethyl)phenyl]-1H-indazol-4-yl}carbamoyl)benzyl]furan-2-carboxamide], the IC50 on human mPGES-1 was 1.2 nM. The negative-log IC50 (pIC50) with human A549 cells was 7.42.

For the molecule `O=C(CC1CCCC1)NCc1ccc(Cl)c(C(=O)Nc2cccc3c2cnn3-c2ccc(C(F)(F)F)cc2)c1` [Example 46, 2-Chloro-5-{[(cyclopentylacetyl)amino]methyl}-N-{1-[4-(trifluoromethyl)phenyl]-1H-indazol-4-yl}benzamide], the concentration for half-maximal inhibition (IC50) at human mPGES-1 was determined as 3 nM. In addition, in the experiment with human A549 cells, the negative logarithm of the IC50 (pIC50) was 7.84.

In the case of `COCCC(=O)NCc1ccc(Cl)c(C(=O)Nc2cccc3c2cnn3-c2ccc(C(F)(F)F)cc2)c1` [Example 47, 2-Chloro-5-{[(3-methoxypropanoyl)amino]methyl}-N-{1-[4-(trifluoromethyl)phenyl]-1H-indazol-4-yl}benzamide], the IC50 on human mPGES-1 came out at 8 nM. For the same molecule, in the experiment with human A549 cells, the pIC50 is 8.07.

On to `COc1ccc(-n2ncc3c(NC(=O)c4cc(CNC(=O)C(C)(C)C)ccc4Cl)cccc32)cc1` [Example 48, 2-Chloro-5-{[(2,2-dimethylpropanoyl)amino]methyl}-N-[1-(4-methoxyphenyl)-1H-indazol-4-yl]benzamide], for which the half-inhibitory concentration (IC50) at human mPGES-1 is 3.3 nM. Further, in the experiment on human A549 cells, the pIC50 was 8.40.

By IC50 is commonly meant the midpoint of a concentration-inhibition curve. The term pIC50 denotes −log10 of the IC50, conventionally taken in molar units.
